Source: US20150105252A1, “SUBSTITUTED PYRAZOLES AS HERBICIDES” (E I DU PONT DE NEMOURS AND COMPANY, priority 2013, published 2015)

Key:
[1] = system: foxtail, giant; assay: Test A preemergence; format: in vivo, Setaria faberii
How it was run: (§1)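 Scoring was visual, on a scale where 100 means complete control and 0 means no effect, comparing treated with untreated plants around 10 days post-application. Compounds in surfactant-containing non-phytotoxic solvent were sprayed onto soil preemergence or onto one- to two-leaf seedlings (2–10 cm) postemergence.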

[2] = system: foxtail, giant; assay: Test A postemergence; format: in vivo, Setaria faberii
How it was run: as §1

[3] = system: morningglory; assay: Test A postemergence; format: in vivo, Ipomoea spp.
How it was run: as §1

[4] = system: ducksalad; assay: Test B flood; format: in vivo, Heteranthera limosa; conditions: 250 g ai/ha, visual rating on 0 to 100 scale (0 no effect, 100 complete control), 13 to 15 days
How it was run: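 Paddy-water application: seedlings at 2-leaf stage, flood depth 3 cm maintained for the test duration. Evaluation after 13–15 days in the greenhouse by eye relative to controls; 0–100 scale.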

[5] = system: crabgrass, large; assay: Test C preemergence; format: in vivo, Digitaria sanguinalis
How it was run: (§2)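 Seeds sown in loam–sand blend and treated preemergence with test chemicals in non-phytotoxic solvent with surfactant; postemergence plants in peat-based medium, treated at 2–18 cm (1- to 4-leaf stage). Greenhouse 13 to 15 days, then visual rating versus controls, 0 (no effect) to 100 (complete control).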

[6] = system: foxtail, giant; assay: Test C preemergence; format: in vivo, Setaria faberii
How it was run: as §2

[7] = system: waterhemp; assay: Test C preemergence; format: in vivo, Amaranthus rudis
How it was run: as §2

[8] = system: galium; assay: Test C postemergence; format: in vivo, Galium aparine; conditions: for Galium plant response rating: scale 0 to 100
How it was run: as §2

[9] = system: foxtail, giant; assay: Test C postemergence; format: in vivo, Setaria faberii; conditions: for Foxtail, Giant plant response rating: scale 0 to 100
How it was run: as §2

[10] = system: johnsongrass; assay: Test C postemergence; format: in vivo, Sorghum halepense; conditions: for Johnsongrass plant response rating: scale 0 to 100
How it was run: as §2

[11] = system: waterhemp; assay: Test C postemergence; format: in vivo, Amaranthus rudis; conditions: for Plant response rating, Waterhemp / Waterhemp plant response rating: postemergence; for Waterhemp plant response rating: scale 0 to 100
How it was run: as §2

[12] = system: oat, wild; assay: Test C postemergence; format: in vivo, Avena fatua; conditions: for Oat, Wild plant response rating: scale 0 to 100
How it was run: as §2

[13] = system: chickweed; assay: Test C postemergence; format: in vivo, Stellaria media; conditions: for Chickweed plant response rating: scale 0 to 100
How it was run: as §2

[14] = Postemergence, 500 g ai/ha, 0 to 100 scale (0 no effect, 100 complete control)
[15] = postemergence, 125 g ai/ha, about 10 days, visual rating on 0 to 100 scale (0 no effect, 100 complete control)
[16] = preemergence, 31 g ai/ha, visual rating, scale 0 to 100 (0 no effect, 100 complete control), 13 to 15 days
[17] = preemergence, 62 g ai/ha, scale 0 to 100 (0 no effect, 100 complete control), 13 to 15 days
[18] = preemergence, 125 g ai/ha, 13 to 15 days, scale 0 to 100, 0 = no effect, 100 = complete control
[19] = preemergence, 250 g ai/ha, scale 0 to 100, 0 is no effect, 100 is complete control
[20] = Postemergence, 31 g ai/ha, visually evaluated after 13 to 15 days
[21] = postemergence, 250 g ai/ha, scale 0 to 100 (0 no effect, 100 complete control)
[22] = postemergence, 125 g ai/ha, scale 0 to 100, 0 no effect, 100 complete control
[23] = Postemergence, 500 g ai/ha, visual rating after approx. 10 days, 0 to 100 scale (0 no effect, 100 complete control)
[24] = Preemergence, 16 g ai/ha, scale 0 to 100
[25] = preemergence, 31 g ai/ha, scale 0 to 100 (0 no effect, 100 complete control), 13 to 15 days
[26] = preemergence, 62 g ai/ha, 13 to 15 days, scale 0 to 100, 0 = no effect, 100 = complete control
[27] = preemergence, 125 g ai/ha, scale 0 to 100, 0 is no effect, 100 is complete control

SMILES: O=C(NC1CC1)c1cc(CCCl)n(Cc2ccnc(C(F)(F)F)c2)n1 [Compound 144]
- Foxtail, Giant plant response rating (0 to 100 scale) ([1]; preemergence, 125 g ai/ha, visual injury approx. 10 days after treatment): 100
- Foxtail, Giant plant response rating ([1]; preemergence, 500 g ai/ha, visual injury after approx. 10 days, 0 to 100 scale (0 no effect, 100 complete control)): 100
- Foxtail, Giant plant response rating [2, 14]: 90
- Foxtail, Giant plant response rating [2, 15]: 90
- Morningglory plant response rating [3, 14]: 90
- Morningglory plant response rating [3, 15]: 80
- Plant response rating, Ducksalad [4]: 95
- Crabgrass, Large plant response rating [5, 16]: 100
- Crabgrass, Large plant response rating [5, 17]: 100
- Plant response rating, Crabgrass, Large [5, 18]: 100
- Crabgrass, Large plant response rating [5, 19]: 100
- Foxtail, Giant plant response rating [6, 16]: 75
- Foxtail, Giant plant response rating [6, 17]: 100
- Plant response rating, Foxtail, Giant [6, 18]: 100
- Foxtail, Giant plant response rating [6, 19]: 100
- Waterhemp plant response rating [7, 16]: 98
- Waterhemp plant response rating [7, 17]: 98
- Plant response rating, Waterhemp [7, 18]: 100
- Waterhemp plant response rating [7, 19]: 100
- Plant response rating (scale of 0 to 100 where 0 is no effect and 100 is complete control), Galium [8, 20]: 40
- Galium plant response rating ([8]; postemergence, 62 g ai/ha): 55
- Plant response rating, Galium [8, 21]: 85
- Plant response rating, Galium [8, 22]: 70
- Plant response rating (scale of 0 to 100 where 0 is no effect and 100 is complete control), Foxtail, Giant [9, 20]: 5
- Foxtail, Giant plant response rating ([9]; postemergence, 62 g ai/ha): 10
- Plant response rating, Foxtail, Giant [9, 21]: 25
- Plant response rating, Foxtail, Giant [9, 22]: 15
- Plant response rating (scale of 0 to 100 where 0 is no effect and 100 is complete control), Johnsongrass [10, 20]: 5
- Johnsongrass plant response rating ([10]; postemergence, 62 g ai/ha): 5
- Plant response rating, Johnsongrass [10, 21]: 15
- Plant response rating, Johnsongrass [10, 22]: 10
- Plant response rating (scale of 0 to 100 where 0 is no effect and 100 is complete control), Waterhemp [11, 20]: 65
- Plant response rating, Waterhemp ([11]; 250 g ai/ha, scale 0 to 100 (0 no effect, 100 complete control)): 75
- Waterhemp plant response rating [11]: 75
- Plant response rating (scale of 0 to 100 where 0 is no effect and 100 is complete control), Oat, Wild [12, 20]: 15
- Oat, Wild plant response rating ([12]; postemergence, 62 g ai/ha): 10
- Plant response rating, Oat, Wild [12, 21]: 45
- Plant response rating, Oat, Wild [12, 22]: 20
- Plant response rating (scale of 0 to 100 where 0 is no effect and 100 is complete control), Chickweed [13, 20]: 70
- Chickweed plant response rating ([13]; postemergence, 62 g ai/ha): 65
- Plant response rating, Chickweed [13, 21]: 90
- Plant response rating, Chickweed [13, 22]: 80

SMILES: CCCNC(=O)c1cc(CC)n(Cc2ccnc(C(F)(F)F)c2)n1 [Compound 75]
- Foxtail, Giant plant response rating ([1]; Preemergence, 500 g ai/ha, 0 to 100 scale, 0 no effect, 100 complete control): 100
- Foxtail, Giant plant response rating ([1]; preemergence, 125 g ai/ha, visual injury, 0 to 100 scale, approx. 10 days): 100
- Foxtail, Giant plant response rating [2, 23]: 100
- Foxtail, Giant plant response rating [2, 15]: 90
- Morningglory plant response rating [3, 23]: 100
- Morningglory plant response rating [3, 15]: 100
- Plant response rating, Ducksalad [4]: 85
- Plant response rating, Crabgrass, Large [5, 24]: 100
- Crabgrass, Large plant response rating [5, 25]: 100
- Plant response rating, Crabgrass, Large [5, 26]: 100
- Crabgrass, Large plant response rating [5, 27]: 100
- Plant response rating, Foxtail, Giant [6, 24]: 80
- Foxtail, Giant plant response rating [6, 25]: 85
- Plant response rating, Foxtail, Giant [6, 26]: 100
- Foxtail, Giant plant response rating [6, 27]: 100
- Plant response rating, Waterhemp [7, 24]: 80
- Waterhemp plant response rating [7, 25]: 100
- Plant response rating, Waterhemp [7, 26]: 100
- Waterhemp plant response rating [7, 27]: 100
- Plant response rating (scale of 0 to 100), Galium ([8]; Postemergence, 16 g ai/ha): 50
- Galium plant response rating ([8]; Postemergence, 31 g ai/ha): 60
- Galium plant response rating ([8]; postemergence, 62 g ai/ha): 60
- Plant response rating, Galium [8, 22]: 65
- Plant response rating (scale of 0 to 100), Foxtail, Giant ([9]; Postemergence, 16 g ai/ha): 15
- Foxtail, Giant plant response rating ([9]; Postemergence, 31 g ai/ha): 20
- Foxtail, Giant plant response rating ([9]; postemergence, 62 g ai/ha): 25
- Plant response rating, Foxtail, Giant [9, 22]: 50
- Plant response rating (scale of 0 to 100), Johnsongrass ([10]; Postemergence, 16 g ai/ha): 10
- Johnsongrass plant response rating ([10]; Postemergence, 31 g ai/ha): 10
- Johnsongrass plant response rating ([10]; postemergence, 62 g ai/ha): 10
- Plant response rating, Johnsongrass [10, 22]: 10
- Waterhemp plant response rating ([11]; 62 g ai/ha): 45
- Plant response rating, Waterhemp ([11]; 125 g ai/ha, scale 0 to 100, 0 no effect, 100 complete control): 75
- Plant response rating (scale of 0 to 100), Oat, Wild ([12]; Postemergence, 16 g ai/ha): 5
- Oat, Wild plant response rating ([12]; Postemergence, 31 g ai/ha): 5
- Oat, Wild plant response rating ([12]; postemergence, 62 g ai/ha): 5
- Plant response rating, Oat, Wild [12, 22]: 25
- Plant response rating (scale of 0 to 100), Chickweed ([13]; Postemergence, 16 g ai/ha): 65
- Chickweed plant response rating ([13]; Postemergence, 31 g ai/ha): 65
- Chickweed plant response rating ([13]; postemergence, 62 g ai/ha): 70
- Plant response rating, Chickweed [13, 22]: 85
